Assay results published in patent US20240400564A1 (Syndax Pharmaceuticals, Inc, priority 2021, published 2024).

Target: hERG (Homo sapiens, UniProt Q12809)
Test: Patch clamp assay (hERG tail currents, whole-cell)

Sequence of hERG (Q12809 whole entry): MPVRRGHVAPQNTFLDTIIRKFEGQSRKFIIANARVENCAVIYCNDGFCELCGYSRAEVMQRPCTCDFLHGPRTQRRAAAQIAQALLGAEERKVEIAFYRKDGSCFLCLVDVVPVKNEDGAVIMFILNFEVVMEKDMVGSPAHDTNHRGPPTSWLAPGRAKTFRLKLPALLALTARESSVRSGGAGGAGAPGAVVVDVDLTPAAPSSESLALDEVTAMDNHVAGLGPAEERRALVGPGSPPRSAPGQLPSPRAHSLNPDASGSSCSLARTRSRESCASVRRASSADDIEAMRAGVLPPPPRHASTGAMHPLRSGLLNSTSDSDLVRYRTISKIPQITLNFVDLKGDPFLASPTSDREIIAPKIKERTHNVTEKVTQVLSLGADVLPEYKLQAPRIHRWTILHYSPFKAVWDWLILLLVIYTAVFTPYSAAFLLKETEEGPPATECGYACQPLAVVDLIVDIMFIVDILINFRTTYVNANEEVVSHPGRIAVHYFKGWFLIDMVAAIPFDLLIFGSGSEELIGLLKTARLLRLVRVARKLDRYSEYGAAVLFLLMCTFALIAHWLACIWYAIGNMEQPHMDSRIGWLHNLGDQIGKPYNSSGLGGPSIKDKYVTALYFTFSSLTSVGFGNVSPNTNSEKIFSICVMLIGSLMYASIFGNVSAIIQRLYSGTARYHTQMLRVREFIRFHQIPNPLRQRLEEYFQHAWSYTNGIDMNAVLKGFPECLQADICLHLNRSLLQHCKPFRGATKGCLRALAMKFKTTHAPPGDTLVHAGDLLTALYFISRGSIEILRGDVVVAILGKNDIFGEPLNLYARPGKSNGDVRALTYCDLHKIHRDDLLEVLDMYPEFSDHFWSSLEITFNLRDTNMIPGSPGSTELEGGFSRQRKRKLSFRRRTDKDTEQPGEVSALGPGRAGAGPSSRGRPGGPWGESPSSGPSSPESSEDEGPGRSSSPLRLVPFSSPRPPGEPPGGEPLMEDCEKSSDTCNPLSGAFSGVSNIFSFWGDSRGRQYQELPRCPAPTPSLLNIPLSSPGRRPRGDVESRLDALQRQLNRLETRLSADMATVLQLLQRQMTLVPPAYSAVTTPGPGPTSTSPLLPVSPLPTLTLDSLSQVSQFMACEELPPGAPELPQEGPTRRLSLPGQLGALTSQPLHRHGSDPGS

| SMILES | hERG % Remaining (30 μM compound) | hERG % Remaining (10 μM compound) |
| --- | --- | --- |
| CCNS(=O)(=O)N[C@H]1CC[C@H](CN2CCC3(CC2)CN(c2ncnnc2Oc2ccc(F)cc2C(=O)N(CC(F)(F)F)C(C)C)C3)OC1 (stereo in doubt) [Example 193, 2-((5-(7-(((2R,5S)-5-((N-Ethylsulfamoyl)amino)tetrahydro-2H-pyran-2-yl)methyl)-2,7-diazaspiro[3.5]nonan-2-yl)-1,2,4-triazin-6-yl)oxy)-5-fluoro-N-isopropyl-N-(2,2,2-trifluoroethyl)benzamide] | +++ (≥66%) | – |
| CCN(C(=O)c1cc(F)ccc1Oc1cncnc1N1CC2(CCN(C[C@@H]3CC[C@@H](NC(=O)OC(C)(C)C)CO3)CC2)C1)C(C)C [Example 11, tert-Butyl ((3R,6S)-6-((2-(5-(2-(ethyl(isopropyl)carbamoyl)-4-fluorophenoxy)pyrimidin-4-yl)-2,7-diazaspiro[3.5]nonan-7-yl)methyl)tetrahydro-2H-pyran-3-yl)carbamate] | + (<33%) | + (<33%) |
| CCN(C(=O)c1cc(F)ccc1Oc1cncnc1N1CC2(CCN(C[C@@H]3CC[C@@H](NC(=O)NCC(F)(F)F)CO3)CC2)C1)C(C)C [Example 37, N-Ethyl-5-fluoro-N-isopropyl-2-((4-(7-(((2S,5R)-5-(3-(2,2,2-trifluoroethyl)ureido)tetrahydro-2H-pyran-2-yl)methyl)-2,7-diazaspiro[3.5]nonan-2-yl)pyrimidin-5-yl)oxy)benzamide] | + (<33%) | + (<33%) |
| CCN(C(=O)c1cc(F)ccc1Oc1cncnc1N1CC2(CCN(C[C@@H]3CC[C@@H](NS(=O)(=O)c4ccccn4)CO3)CC2)C1)C(C)C [Example 58, N-ethyl-5-fluoro-N-isopropyl-2-((4-(7-(((2S,5R)-5-(pyridine-2-sulfonamido)tetrahydro-2H-pyran-2-yl)methyl)-2,7-diazaspiro[3.5]nonan-2-yl)pyrimidin-5-yl)oxy)benzamide] | ++ (233% and ≤66%) | +++ (≥66%) |
| CCN(C(=O)c1cc(F)ccc1Oc1cncnc1N1CC2(CCN(C[C@@H]3CC[C@@H](NS(=O)(=O)c4ccccc4Cl)CO3)CC2)C1)C(C)C [Example 59, 2-((4-(7-(((2S,5R)-5-((2-Chlorophenyl)sulfonamido)tetrahydro-2H-pyran-2-yl)methyl)-2,7-diazaspiro[3.5]nonan-2-yl)pyrimidin-5-yl)oxy)-N-ethyl-5-fluoro-N-isopropylbenzamide] | + (<33%) | + (<33%) |
| CCN(C(=O)c1cc(F)ccc1Oc1cncnc1N1CC2(CCN(C[C@@H]3CC[C@@H](NS(=O)(=O)c4ccc(OC)cc4)CO3)CC2)C1)C(C)C [Example 62, N-Ethyl-5-fluoro-N-isopropyl-2-((4-(7-(((2S,5R)-5-((4-methoxyphenyl)sulfonamido)tetrahydro-2H-pyran-2-yl)methyl)-2,7-diazaspiro[3.5]nonan-2-yl)pyrimidin-5-yl)oxy)benzamide] | + (<33%) | + (<33%) |
| CCN(C(=O)c1cc(F)ccc1Oc1cncnc1N1CC2(CCN(C[C@@H]3CC[C@@H](NS(=O)(=O)c4cccnc4)CO3)CC2)C1)C(C)C [Example 63, N-Ethyl-5-fluoro-N-isopropyl-2-((4-(7-(((2S,5R)-5-(pyridine-3-sulfonamido)tetrahydro-2H-pyran-2-yl)methyl)-2,7-diazaspiro[3.5]nonan-2-yl)pyrimidin-5-yl)oxy)benzamide] | ++ (233% and ≤66%) | +++ (≥66%) |
| CCN(C(=O)c1cc(F)ccc1Oc1cncnc1N1CC2(CCN(C[C@@H]3CC[C@@H](NS(=O)(=O)N4CCOCC4)CO3)CC2)C1)C(C)C [Example 64, N-Ethyl-5-fluoro-N-isopropyl-2-((4-(7-(((2S,5R)-5-(morpholine-4-sulfonamido)tetrahydro-2H-pyran-2-yl)methyl)-2,7-diazaspiro[3.5]nonan-2-yl)pyrimidin-5-yl)oxy)benzamide] | ++ (233% and ≤66%) | +++ (≥66%) |
